Test results published in patent US11591294B2, “Fluorenone/fluorenol derivatives for aqueous redox flow batteries” (Battelle Memorial Institute, priority 2019, dated 2023).
≈ marks a conversion by molar mass, not a printed value. Where two headings read alike, the source gives them in different places. Each block holds one molecule with its values, some of them ahead of it.

Tests used:
[1] = Solubility test; type: physicochemical
Procedure: Solubility test: The dissolving solvent was added drop by drop to 1 mmol of testing powder with intermittent agitation with VWR Vertex mixer, until all powder was dissolved. The total mass of the solution was recorded. A glass micro syringe was used to transfer 100 μL of the solution directly to a tared weight glass vial for mass measurement. Specific gravity of the as-obtained solution was calculated, then the total volume of the as-obtained solution was calculated using calculated density and recorded total solution mass. Last, molarity was calculated based on calculated total solution volume (Duan et al., ACS Energy Letters 2017, 2:1156-1161).
The solubilities of as-synthesized FLs in basic solution, 2 M NaOH/KOH, was investigated. […] The energy density is almost double that of a conventional vanadium electrolyte.

[2] = Cyclic voltammetry in aqueous 1 M NaOH; type: physicochemical; details: 1 M NaOH solution
Procedure: Electrochemical tests: CV measurements in aqueous phase were performed using a three-electrode configuration consisting of a glassy carbon working electrode (3 mm diameter), a glassy carbon counter electrode and an Ag/AgCl reference electrode. The electrolytes of 10 mM redox-active materials in 1.0 M NaOH were used. CV data were collected using a CHI760D potentiostat (CH Instruments) at a scan rate of 100 mV s^−1 (Hollas et al., Nature Energy 2018, 3:508-514). CV measurements in nonaqueous phase were performed using a three-electrode configuration consisting of a glassy carbon working electrode (3 mm diameter), a glassy carbon counter electrode and an Ag/AgNO3 (10 mM in Acetonitrile) as reference electrode or Ag wire as pseudo reference electrode (Inzelt et al., Handbook of Reference Electrodes, 2013, Springer). Tests were carried out in an argon-filled Mbraun glove box (Stratham, N.H., USA).
In view of the DFT calculation, it was theorized that functionalization of the FL ring structures with electron withdrawing groups such as —F, -sulfonamide, and —SO3−, among others, would shift the equilibrium constant to increase the concentration of deprotonated FL-OH anion/dianion relative to FL-OH, thereby improving the two-electron redox-reversibility of FLs. […] As expected, the CV curves with two pairs of peaks become clear and sharp with adding stronger electron withdrawing groups. […]

[3] = Post-cycling analysis of anolyte (NMR, mass spectroscopy); type: physicochemical; details: after 6-month operation, 1.36 M anolyte
Procedure: An additional test was conducted for six months (FIG. 18). […] At about cycle 650, catholyte precipitation was noticed, and replaced with fresh catholyte. No material degradation was detected by NMR or mass-spectroscopy (FIGS. 21 and 22).
For the reason that charged anolyte is usually sensitive to 02, flow battery tests of organic based electrolyte reported so far are conducted in inert atmosphere, which is a significant hurdle to their practical applications. We submit another battery test without significant deaerating treatment at reasonable CE and EE (FIGS. 34 and 35). The 1 M battery was assembled without N2 atmosphere, sealed with a stopper and parafilm, and no further deoxygenation was conducted before charging. The battery operated stably at 20 mA/cm^2 for 2 weeks. The observed capacity fluctuation was attributed to temperature changes on a daily basis. […] The first cycle low CE was attributed to charged material consuming existing 02 in the cell system. As expected, the first cycle charging capacity was a little higher than same amount of substance in a battery inside the purge box (without 02 induced discharge influence). However, no irreversible side reactions occurred and long-term cycling occurred analogous to tests conducted in an inert atmosphere purge box. […]

[4] = 2M KOH column; literature data provided as a comparison (tested in KOH); cited from earlier work
[5] = 2 M KOH solution, aqueous buffer, thermodynamic from solid, 2M KOH, read-out: Solubility
[6] = 2 M NaOH solution, aqueous buffer, thermodynamic from solid, 2M NaOH, read-out: Solubility

SMILES: O=C(O)c1ccc2c(c1)C(=O)c1cc(S(=O)(=O)[O-])ccc1-2.[K+] [Compound 2C7SFL]
- solubility [1, 5]: 700 mM
- solubility [1, 6]: 1100 mM

SMILES: O=C1c2cc(Br)cc(S(=O)(=O)[O-])c2-c2c1cc(Br)cc2S(=O)(=O)[O-].[K+].[K+] [Compound 27Br4SFL]
- solubility ([1]; 2M KOH): trace
- solubility ([1]; 2M NaOH): trace

SMILES: O=C1c2cc(O)ccc2-c2ccc(O)cc21 [DHFL, 9-oxo-2,7-dihydroxy-9H-fluorene]
- solubility ([1]; pure water with 2 eq. NaOH, aqueous buffer, thermodynamic from solid, with 2 eq. NaOH in pure water, read-out: Solubility): 600 mM (≈ 127 mg/mL)

SMILES: N#Cc1nc2c(nc1O)-c1ccccc1C2=O [Compound 14N2CN3OHFL, 3-hydroxy-9-oxo-9H-indeno[1,2-b]pyrazine-2-carbonitrile]
- solubility [1, 6]: 1000 mM (≈ 223 mg/mL)
- reversible peak potential [2]: ~−0.85 V vs Ag/AgCl

SMILES: O=C(O)c1cc(S(=O)(=O)O)cc2c1-c1ccc(S(=O)(=O)O)cc1C2=O [Compound 27S4CFL, 9-oxo-2,7-sulfo-9H-fluorene-4-carboxylic acid]
- solubility ([1]; 2M NaOH): 800 mM (≈ 307 mg/mL)

SMILES: O=C(O)c1cc(F)cc2c1-c1c(cc(F)cc1S(=O)(=O)[O-])C2=O.[K+] [Compound 27F4C5SFL]
- solubility ([1]; 2M NaOH): 150 mM

SMILES: O=C(O)c1cccc2c1-c1ccc(S(=O)(=O)O)cc1C2=O [Compound 4C7SFL, 9-Oxo-7-sulfo-9H-fluorene-4-carboxylic acid]
- post-cycling analysis (in words) [3]: small, yet observable new aromatic peaks attributed to de-sulfonation on the fluorenone core structure
- solubility [1, 5]: 1300 mM (≈ 396 mg/mL)
- solubility [1, 6]: 1500 mM (≈ 456 mg/mL)
- available electron concentration ([1]; two-electron redox reaction, from solubility): ~3 M

SMILES: O=C(O)c1cccc2c1-c1ccccc1C2=O [Compound 4CFL]
- solubility [4]: 650 mM (≈ 146 mg/mL)

SMILES: O=C(O)c1ccc2c(c1)C(=O)c1ccccc1-2 [Compound 2CFL]
- solubility [4]: 800 mM (≈ 179 mg/mL)

Now from value to molecule:

- solubility ([1]; 2M KOH): 900 mM (≈ 241 mg/mL)
- solubility ([1]; 2M NaOH): 40 mM (≈ 10.7 mg/mL)
SMILES: O=C(O)c1ccc2c(c1)C(=O)c1cc(C(=O)O)ccc1-2 [DCFL]

- solubility ([1]; 2 M KOH solution, aqueous buffer, thermodynamic from solid, read-out: Solubility): < 50 mM
- solubility ([1]; 2 M NaOH solution, aqueous buffer, thermodynamic from solid, read-out: Solubility): < 50 mM
- solubility ([1]; thermodynamic from solid, disodium salt in pure water, read-out: Solubility): ≤ 240 mM
SMILES: O=C1c2cc(S(=O)(=O)[O-])ccc2-c2ccc(S(=O)(=O)[O-])cc21.[K+].[K+] [DSFL, Potassium 9-oxo-9H-fluorene-2,7-disulfonate]

- solubility ([1]; thermodynamic from solid, with agitation, copious precipitate after sitting overnight, read-out: Solubility (transparent homogeneous solution)): ≤ 1400 mM
SMILES: O=C(O)c1cc(F)cc2c1-c1ccc(F)cc1C2=O [Compound 27F4CFL]

- solubility (in words) [1]: limited solubility
SMILES: O=C1c2cccnc2-c2ncccc21 [Compound 45NFL, 4,5-diazafluoren-9-one]

- solubility ([1]; 2M KOH): trace
- solubility ([1]; 2M NaOH): trace
SMILES: O=C1c2cc(OCCOCCOCCO)ccc2-c2ccc(OCCOCCOCCO)cc21 [PEG-FL]
